Results as given in patent publication US20140050805A1, “COMPOSITION, GLUCOSE METABOLISM-IMPROVING AGENT, AND METHOD FOR IMPROVING GLUCOSE METABOLISM” (Lion Corporation, priority 2011, published 2014).

Columns and labels:
[1] = tested on: Hyperglycemia model mice (TSOD mouse); experiment: Blood glucose level in hyperglycemia model mice (TSOD) bred on mixed feed for 5 days; assay type: in vivo
Experimental: Mixed feeds of Examples 1 to 3 and Comparative Examples 1 to 4 were prepared by mixing a commercially available feed (trade name: D12450B, product of Research Diet Co.) with Panax notoginseng powder (product of MATSUURA YAKUGYO CO., LTD.) and at least one of Piper longum extract (trade name, LONG PEPPER EXTRACT POWDER MF, composition: 10% by mass of a hot water extract of Piper longum, 90% by mass of dextrin, product of MARUZEN PHARMACEUTICALS CO., LTD.) and vitamin B1 nitrate (product of Wako Pure Chemical Industries, Ltd.) in respective amounts shown in the following Table 1. The above commercially available feed only was used in Comparative Example 4.
Hyperglycemia model mice (TSOD mouse (obtained from Institute for Animal Reproduction), 14 weeks old, 5 mice/group) were given ad libitum each of the mixed feeds of Examples 1 to 3 and Comparative Examples 1 to 4 to breed them for 5 days.
(§1) The blood glucose levels at 10 a.m. were measured by the below-described method, before giving the mixed feed to the hyperglycemia model mice (before the start of breeding with the mixed feed) and after giving the mixed feed to the hyperglycemia model mice for 5 days (after the breeding with the mixed feed). A significance test was performed using the Dunnett's multiple test.
Also, the difference between the blood glucose levels before the start of breeding with the mixed feed and after the breeding with the mixed feed (Δblood glucose level) was calculated using the following calculation formula.
Δ Blood glucose level (mg/dL)=Blood glucose level before the start of breeding with the mixed feed (mg/dL)−Blood glucose level after the breeding with the mixed feed (mg/dL)
(§2) The blood glucose level was measured with a simplified blood glucose level measuring system (trade name: CYCLIC GB SENSOR, product of Sanko Junyaku Co., Ltd.).

[2] = tested on: Hyperglycemia model mice (KKAy mice); experiment: Blood glucose level in hyperglycemia model mice (KKAy) bred on high fat diet mixed feed for 5 days; assay type: in vivo, mouse
Experimental: as §2
Mixed feeds of Examples 4 to 7 and Comparative Examples 6 to 8 were prepared by mixing a commercially available high fat diet (trade name: Quick Fat, product of CLEA Japan, Inc.) with the acid-treated Panax notoginseng product produced in Production Example 1 and at least one of Piper longum extract (trade name, LONG PEPPER EXTRACT POWDER MF, composition: 10% by mass of a hot water extract of Piper longum, 90% by mass of dextrin, product of MARUZEN PHARMACEUTICALS CO., LTD.) and vitamin B1 nitrate (product of Wako Pure Chemical Industries, Ltd.) in respective amounts shown in the following Table 2. The mixed feed of Example 8 was prepared by using Panax notoginseng powder (product of MATSUURA YAKUGYO CO., LTD.) instead of the acid-treated Panax notoginseng product of Example 4. The above commercially available high fat diet only was used in Comparative Example 5.
Hyperglycemia model mice (KKAy mice (obtained from CLEA Japan, Inc.), 20 weeks old, 5 mice/group) were given ad libitum each of the mixed feeds of Examples 4 to 8 and Comparative Examples 5 to 8 to breed them for 5 days.
as §1, with “in” for “by”, “same manner as in Example 1,” for “below-described method,”

[3] = level before minus level after 5 days of mixed feed

| SMILES | Blood glucose levels Before the start of breeding with the mixed feed ([1]; 14 weeks old, 10 a.m., average, baseline before mixed feed) | Δ Blood glucose level [1, 3] | Blood glucose levels After the breeding with the mixed feed ([1]; mixed feed ad libitum for 5 days, 10 a.m., average) | Blood glucose levels Before the start of breeding with the mixed feed ([2]; 20 weeks old, 10 a.m., average, baseline before mixed feed) | Blood glucose levels After the breeding with the mixed feed ([2]; high fat diet mixed feed ad libitum for 5 days, 10 a.m., average) | Δ Blood glucose level [2, 3] |
| --- | --- | --- | --- | --- | --- | --- |
| Cc1ncc(C[n+]2csc(CCO)c2C)c(N)n1.O=[N+]([O-])[O-] [compound 2, vitamin B1 nitrate] | 389.2 mg/dL | 43.9 mg/dL | 345.3 mg/dL | – | – | – |
| Cc1ncc(C[n+]2csc(CCO)c2C)c(N)n1.O=[N+]([O-])[O-] [compound 8, vitamin B1 nitrate] | – | – | – | 551 mg/dL | 501 mg/dL | 50 mg/dL |
